One data set concerns the target PRMT1 (Homo sapiens, UniProt Q99873). Kind of data set: PRMT1 enzyme inhibition. In kind it is biochemical. Particulars: read-out: Ki PRMT1; competitive inhibitors.
For another data set, the target named is T1, G9a (Homo sapiens, UniProt Q96KQ7).
T1 sequence (Q96KQ7 1-1210): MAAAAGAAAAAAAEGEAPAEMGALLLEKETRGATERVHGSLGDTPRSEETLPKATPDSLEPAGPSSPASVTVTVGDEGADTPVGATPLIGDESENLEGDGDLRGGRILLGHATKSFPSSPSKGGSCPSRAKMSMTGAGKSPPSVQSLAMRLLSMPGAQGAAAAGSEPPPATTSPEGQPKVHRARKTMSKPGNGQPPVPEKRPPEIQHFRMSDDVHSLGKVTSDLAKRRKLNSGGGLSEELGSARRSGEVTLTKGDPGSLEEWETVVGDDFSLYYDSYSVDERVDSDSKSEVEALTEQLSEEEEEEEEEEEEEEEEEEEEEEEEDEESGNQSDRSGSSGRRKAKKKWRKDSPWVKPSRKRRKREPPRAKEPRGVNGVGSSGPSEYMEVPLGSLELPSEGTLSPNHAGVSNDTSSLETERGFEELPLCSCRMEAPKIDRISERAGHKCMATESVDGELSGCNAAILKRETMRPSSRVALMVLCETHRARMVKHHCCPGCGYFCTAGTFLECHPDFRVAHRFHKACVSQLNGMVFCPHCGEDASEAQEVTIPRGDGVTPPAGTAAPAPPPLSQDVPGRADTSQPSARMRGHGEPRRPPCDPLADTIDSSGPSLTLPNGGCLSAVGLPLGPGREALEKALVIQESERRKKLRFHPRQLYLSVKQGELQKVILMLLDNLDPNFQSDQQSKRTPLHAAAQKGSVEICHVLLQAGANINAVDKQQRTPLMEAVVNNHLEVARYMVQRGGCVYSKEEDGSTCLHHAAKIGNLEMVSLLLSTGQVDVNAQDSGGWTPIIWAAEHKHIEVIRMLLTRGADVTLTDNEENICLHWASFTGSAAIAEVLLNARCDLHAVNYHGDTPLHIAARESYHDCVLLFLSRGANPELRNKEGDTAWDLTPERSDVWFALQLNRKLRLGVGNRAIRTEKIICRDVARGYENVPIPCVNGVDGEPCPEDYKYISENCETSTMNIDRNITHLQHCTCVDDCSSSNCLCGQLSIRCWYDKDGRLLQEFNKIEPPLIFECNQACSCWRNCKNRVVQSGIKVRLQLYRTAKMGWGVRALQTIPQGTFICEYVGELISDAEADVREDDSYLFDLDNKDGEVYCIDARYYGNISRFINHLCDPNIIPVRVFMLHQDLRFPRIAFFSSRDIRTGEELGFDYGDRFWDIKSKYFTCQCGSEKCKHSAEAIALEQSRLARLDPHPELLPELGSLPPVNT
Briefly: G9a enzyme inhibition. In kind it is biochemical.

Data set [1] concerns the target T2, CARM1 (also known as PRMT4) (Homo sapiens, UniProt Q86X55).
T2 sequence (Q86X55 1-608): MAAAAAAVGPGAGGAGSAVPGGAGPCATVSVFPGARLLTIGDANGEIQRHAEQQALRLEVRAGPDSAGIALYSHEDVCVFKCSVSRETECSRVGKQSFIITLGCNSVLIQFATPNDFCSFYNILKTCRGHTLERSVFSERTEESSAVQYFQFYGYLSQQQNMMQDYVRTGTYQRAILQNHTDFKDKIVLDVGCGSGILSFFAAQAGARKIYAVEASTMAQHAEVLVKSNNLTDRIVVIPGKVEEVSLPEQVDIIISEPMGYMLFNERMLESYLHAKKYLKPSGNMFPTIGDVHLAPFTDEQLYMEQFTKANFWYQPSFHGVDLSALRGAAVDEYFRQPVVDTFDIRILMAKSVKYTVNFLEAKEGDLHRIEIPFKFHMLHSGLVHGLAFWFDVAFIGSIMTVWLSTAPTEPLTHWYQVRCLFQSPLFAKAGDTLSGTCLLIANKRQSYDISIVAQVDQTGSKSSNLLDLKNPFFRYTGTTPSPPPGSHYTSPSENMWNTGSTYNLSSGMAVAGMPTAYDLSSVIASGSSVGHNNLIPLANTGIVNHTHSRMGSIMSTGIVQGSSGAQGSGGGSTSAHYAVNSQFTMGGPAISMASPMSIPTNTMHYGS
Briefly: CARM1 enzyme inhibition. The settings on record: read-out: Ki CARM1; competitive inhibitors. In kind it is biochemical.

The next data set deals with SAH hydrolase. Particulars: in cells / in vivo; cited from earlier work.

Chain of PRMT1 (Q99873 whole entry, species assumed): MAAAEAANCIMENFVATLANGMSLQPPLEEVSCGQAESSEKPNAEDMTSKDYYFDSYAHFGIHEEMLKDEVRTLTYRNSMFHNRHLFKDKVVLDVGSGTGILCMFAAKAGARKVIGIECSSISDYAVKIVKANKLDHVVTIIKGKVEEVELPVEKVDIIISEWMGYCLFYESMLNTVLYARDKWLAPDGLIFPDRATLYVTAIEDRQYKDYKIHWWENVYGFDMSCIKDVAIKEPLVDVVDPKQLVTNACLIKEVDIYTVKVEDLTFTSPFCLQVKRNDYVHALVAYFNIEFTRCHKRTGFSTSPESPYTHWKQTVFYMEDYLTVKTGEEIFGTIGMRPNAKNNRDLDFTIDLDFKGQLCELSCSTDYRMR

Regarding `N[C@@H](CCSC[C@H]1O[C@@H](n2cnc3c(NCc4ccccc4)ncnc32)[C@H](O)[C@@H]1O)C(=O)O` [Compound 2, N6-benzyl-SAH], the Ki (as a rule, a measure of affinity in units of concentration, obtained from inhibition or displacement) at PRMT1 is 21.2 µM; on G9a (read-out: Ki G9a, competitive inhibitors), more than 100 µM; in data set [1], 18 µM. On G9a, the “activity on G9a” value was “inactive”.
Turning to `Nc1ncnc2c1ncn2[C@@H]1O[C@H](CSCC[C@H](N)C(=O)O)[C@@H](O)[C@H]1O` [SAH, S-(5'-adenosyl)-L-homocysteine], in the data set on SAH hydrolase, the “degradation to adenosine and homocysteine by SAH hydrolase” value was “quickly degraded”.

The values are drawn from publication PMC3492951 (Journal of the American Chemical Society, 2011).
